In US9695155B2, “Herbicidal substituted pyrimidinyloxy benzene compounds” (E. I. DU PONT DE NEMOURS AND COMPANY, priority 2013, dated 2017):

Assays:
[1] = system: sedge, umbrella; assay: Test C flooded paddy test; type: in vivo, Cyperus difformis; settings: Flood, scale 0 to 100 (0 no effect, 100 complete control), 13 to 15 days
In short: (§1)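 Compound was added to standing water 3 cm above soil, flood maintained, and plants held in a greenhouse before visual scoring against controls at 13 to 15 days.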

[2] = system: barnyardgrass; assay: Test C flooded paddy test; type: in vivo, Echinochloa crus-galli; settings: Flood, scale 0 to 100 (0 no effect, 100 complete control), 13 to 15 days
In short: as §1

[3] = system: soybean; assay: Test E preemergence; type: in vivo, Glycine max; settings: for Soybean plant response rating: scale 0 to 100 (0 no effect, 100 complete control); for Plant response rating, Soybean: scale 0 to 100, 0 no effect, 100 complete control
In short: (§2)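 Response was scored visually on a 0-100 scale (100 = complete control) versus controls after 14 to 21 days in the greenhouse. Test chemicals, formulated with surfactant in a non-phytotoxic solvent mixture, had been applied preemergence to seeds in silt loam soil or postemergence to 1- to 4-leaf plants in potting medium.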

[4] = system: lambsquarters; assay: Test E preemergence; type: in vivo, Chenopodium album; settings: for Lambsquarters plant response rating: scale 0 to 100 (0 no effect, 100 complete control); for Plant response rating, Lambsquarters: scale 0 to 100, 0 no effect, 100 complete control
In short: as §2

[5] = system: waterhemp; assay: Test E preemergence; type: in vivo, Amaranthus rudis; settings: for Waterhemp plant response rating: scale 0 to 100 (0 no effect, 100 complete control); for Plant response rating, Waterhemp: scale 0 to 100, 0 no effect, 100 complete control
In short: as §2

[6] = system: goosegrass; assay: Test E preemergence; type: in vivo, Eleusine indica; settings: for Goosegrass plant response rating: scale 0 to 100 (0 no effect, 100 complete control); for Plant response rating, Goosegrass: scale 0 to 100, 0 no effect, 100 complete control
In short: as §2

[7] = system: ragweed; assay: Test E preemergence; type: in vivo, Ambrosia elatior; settings: for Ragweed plant response rating: scale 0 to 100 (0 no effect, 100 complete control); for Plant response rating, Ragweed: scale 0 to 100, 0 no effect, 100 complete control
In short: as §2

[8] = system: sandbur; assay: Test E preemergence; type: in vivo, Cenchrus echinatus; settings: for Sandbur plant response rating: scale 0 to 100 (0 no effect, 100 complete control); for Plant response rating, Sandbur: scale 0 to 100, 0 no effect, 100 complete control
In short: as §2

[9] = system: Italian ryegrass; assay: Test E preemergence; type: in vivo, Lolium multiflorum; settings: for Ryegrass, Italian plant response rating: scale 0 to 100 (0 no effect, 100 complete control); for Plant response rating, Ryegrass, Italian: scale 0 to 100, 0 no effect, 100 complete control
In short: as §2

[10] = system: dayflower; assay: Test E preemergence; type: in vivo, Commelina virginica; settings: for Dayflower, VA plant response rating: scale 0 to 100 (0 no effect, 100 complete control); for Plant response rating, Dayflower, VA: scale 0 to 100, 0 no effect, 100 complete control
In short: as §2

[11] = system: field bindweed; assay: Test E preemergence; type: in vivo, Convolvulus arvensis; settings: for Field Bindweed plant response rating: scale 0 to 100 (0 no effect, 100 complete control); for Plant response rating, Field Bindweed: scale 0 to 100, 0 no effect, 100 complete control
In short: as §2

[12] = system: yellow nutsedge; assay: Test E preemergence; type: in vivo, Cyperus esculentus; settings: for Nutsedge, Yellow plant response rating: scale 0 to 100 (0 no effect, 100 complete control); for Plant response rating, Nutsedge, Yellow: scale 0 to 100, 0 no effect, 100 complete control
In short: as §2

[13] = system: hairy beggarticks; assay: Test E preemergence; type: in vivo, Bidens pilosa; settings: preemergence; for Beggarticks plant response rating: scale 0 to 100 (0 no effect, 100 complete control); for Plant response rating, Beggarticks: scale 0 to 100, 0 no effect, 100 complete control
In short: as §2

[14] = system: corn; assay: Test E postemergence; type: in vivo, Zea mays
In short: as §2

[15] = system: Brazilian crabgrass; assay: Test E postemergence; type: in vivo, Digitaria horizontalis
In short: as §2

[16] = system: barnyardgrass; assay: Test E postemergence; type: in vivo, Echinochloa crus-galli
In short: as §2

[17] = system: dayflower; assay: Test E postemergence; type: in vivo, Commelina virginica
In short: as §2

[18] = system: hairy beggarticks; assay: Test E postemergence; type: in vivo, Bidens pilosa
In short: as §2

[19] = Postemergence, 31 g ai/ha, scale 0 to 100
[20] = Postemergence, 62 g ai/ha, scale 0 to 100
[21] = Postemergence, 125 g ai/ha, scale 0 to 100
[22] = Postemergence, 250 g ai/ha, scale 0 to 100
[23] = postemergence, 16 g ai/ha, scale 0 to 100, 0 no effect, 100 complete control

In the case of `N#Cc1cnn(-c2c(C#N)cccc2Oc2ncc(Cl)cn2)c1` [Compound 200], the “Plant response rating, Sedge, Umbrella” value ([1]; 31 g ai/ha) is reported as 0, the “Plant response rating, Sedge, Umbrella” value ([1]; 62 g ai/ha) is reported as 80 and the “Plant response rating, Sedge, Umbrella” value ([1]; 125 g ai/ha) is reported as 90. For the same compound, the “Plant response rating, Sedge, Umbrella” value ([1]; 250 g ai/ha) was 90, the “Plant response rating, Barnyardgrass” value ([2]; 31 g ai/ha) was 0 and the “Plant response rating, Barnyardgrass” value ([2]; 62 g ai/ha) was 0. The “Plant response rating, Barnyardgrass” value ([2]; 125 g ai/ha) was 0, the “Plant response rating, Barnyardgrass” value ([2]; 250 g ai/ha) was 25 and the “Soybean plant response rating” value ([3]; 31 g ai/ha) was 25. For the same compound, the “Soybean plant response rating” value ([3]; 62 g ai/ha) was 35, the “Plant response rating, Soybean” value ([3]; 125 g ai/ha) was 65 and the “Plant response rating, Soybean” value ([3]; 250 g ai/ha) was 90. The “Lambsquarters plant response rating” value ([4]; 31 g ai/ha) was 65, the “Lambsquarters plant response rating” value ([4]; 62 g ai/ha) was 80 and the “Plant response rating, Lambsquarters” value ([4]; 125 g ai/ha) was 98. The “Plant response rating, Lambsquarters” value ([4]; 250 g ai/ha) was 100, the “Waterhemp plant response rating” value ([5]; 31 g ai/ha) was 100 and the “Waterhemp plant response rating” value ([5]; 62 g ai/ha) was 100. For the same compound, the “Plant response rating, Waterhemp” value ([5]; 125 g ai/ha) was 100, the “Plant response rating, Waterhemp” value ([5]; 250 g ai/ha) was 100 and the “Goosegrass plant response rating” value ([6]; 31 g ai/ha) was 5. For the same compound, the “Goosegrass plant response rating” value ([6]; 62 g ai/ha) was 60, the “Plant response rating, Goosegrass” value ([6]; 125 g ai/ha) was 80 and the “Plant response rating, Goosegrass” value ([6]; 250 g ai/ha) was 90. The “Ragweed plant response rating” value ([7]; 31 g ai/ha) was 0, the “Ragweed plant response rating” value ([7]; 62 g ai/ha) was 80 and the “Plant response rating, Ragweed” value ([7]; 125 g ai/ha) was 80. For the same compound, the “Plant response rating, Ragweed” value ([7]; 250 g ai/ha) was 95, the “Sandbur plant response rating” value ([8]; 31 g ai/ha) was 0 and the “Sandbur plant response rating” value ([8]; 62 g ai/ha) was 5. For the same compound, the “Plant response rating, Sandbur” value ([8]; 125 g ai/ha) was 40, the “Plant response rating, Sandbur” value ([8]; 250 g ai/ha) was 70 and the “Ryegrass, Italian plant response rating” value ([9]; 31 g ai/ha) was 0. The “Ryegrass, Italian plant response rating” value ([9]; 62 g ai/ha) was 20, the “Plant response rating, Ryegrass, Italian” value ([9]; 125 g ai/ha) was 60 and the “Plant response rating, Ryegrass, Italian” value ([9]; 250 g ai/ha) was 80. For the same compound, the “Dayflower, VA plant response rating” value ([10]; 16 g ai/ha) was 0, the “Dayflower, VA plant response rating” value ([10]; 31 g ai/ha) was 35 and the “Dayflower, VA plant response rating” value ([10]; 62 g ai/ha) was 65. The “Plant response rating, Dayflower, VA” value ([10]; 125 g ai/ha) was 65, the “Plant response rating, Dayflower, VA” value ([10]; 250 g ai/ha) was 85 and the “Field Bindweed plant response rating” value ([11]; 16 g ai/ha) was 5. For the same compound, the “Field Bindweed plant response rating” value ([11]; 31 g ai/ha) was 10, the “Field Bindweed plant response rating” value ([11]; 62 g ai/ha) was 40 and the “Plant response rating, Field Bindweed” value ([11]; 125 g ai/ha) was 70. For the same compound, the “Plant response rating, Field Bindweed” value ([11]; 250 g ai/ha) was 95, the “Nutsedge, Yellow plant response rating” value ([12]; 31 g ai/ha) was 0 and the “Nutsedge, Yellow plant response rating” value ([12]; 62 g ai/ha) was 0. The “Plant response rating, Nutsedge, Yellow” value ([12]; 125 g ai/ha) was 40, the “Plant response rating, Nutsedge, Yellow” value ([12]; 250 g ai/ha) was 70 and the “Beggarticks plant response rating” value ([13]; 16 g ai/ha) was 0. The “Beggarticks plant response rating” value ([13]; 31 g ai/ha) was 10, the “Beggarticks plant response rating” value ([13]; 62 g ai/ha) was 35 and the “Plant response rating, Beggarticks” value ([13]; 125 g ai/ha) was 75. For the same compound, the “Plant response rating, Beggarticks” value ([13]; 250 g ai/ha) was 95, the “Plant response rating, Corn” value [14, 19] was 10 and the “Plant response rating, Corn” value [14, 20] was 15. For the same compound, the “Plant response rating, Corn” value [14, 21] was 20, the “Plant response rating, Corn” value [14, 22] was 25 and the “Plant response rating, Corn” value [14, 23] was 10. For the same compound, the “Plant response rating, Crabgrass, Brazil” value [15, 19] was 15, the “Plant response rating, Crabgrass, Brazil” value [15, 20] was 30 and the “Plant response rating, Crabgrass, Brazil” value [15, 21] was 50. For the same compound, the “Plant response rating, Crabgrass, Brazil” value [15, 22] was 60, the “Plant response rating, Crabgrass, Brazil” value [15, 23] was 10 and the “Plant response rating, Barnyardgrass” value [16, 19] was 0. For the same compound, the “Plant response rating, Barnyardgrass” value [16, 20] was 0, the “Plant response rating, Barnyardgrass” value [16, 21] was 20 and the “Plant response rating, Barnyardgrass” value [16, 22] was 40. For the same compound, the “Plant response rating, Barnyardgrass” value [16, 23] was 0, the “Plant response rating, Dayflower, VA” value [17, 19] was 25 and the “Plant response rating, Dayflower, VA” value [17, 20] was 40. For the same compound, the “Plant response rating, Dayflower, VA” value [17, 21] was 60, the “Plant response rating, Dayflower, VA” value [17, 22] was 70 and the “Plant response rating, Dayflower, VA” value [17, 23] was 15. The “Plant response rating, Beggarticks” value [18, 19] was 60, the “Plant response rating, Beggarticks” value [18, 20] was 70 and the “Plant response rating, Beggarticks” value [18, 21] was 90. For the same compound, the “Plant response rating, Beggarticks” value [18, 22] was 95 and the “Plant response rating, Beggarticks” value [18, 23] was 50.
